Measured values as given in patent US20100297256A1, “METHODS AND COMPOSITIONS FOR INHIBITING INTEGRINS USING TELLURIUM-CONTAINING COMPOUNDS” (priority 2007, published 2010).

Tests used:
[1] = biological target: T1, αVβ3 integrin (Homo sapiens, UniProt P05106+P06756); experiment: Integrin-WNV attachment assay; assay type: binding; settings: purified integrin 75 ng/well
T1 construct: purchased Chemicon
Protocol: A solid-phase binding assay was performed according to a method previously described by Sharma et al [Virology, 239:150, 1997]. WNV was diluted in 50 mM carbonate-bicarbonate buffer, pH 9.6, to a concentration of 10^6 PFU/ml, and 100 μl aliquots were added to the wells of 96-well Nunc-Maxisorp ELISA plates. The plates were incubated overnight at 4° C., washed three times with washing buffer (20 mM Tris-HCL [pH 7.5], 150 mM NaCl), and then blocked for 2 hours at room temperature with […] of blocking buffer containing 20 mM Tris-HCL, pH 7.5, 150 mM NaCl, 5% Bovine serum albumin (BSA). The wells were then washed again, and purified αVβ3 integrin (75 ng/well), diluted in binding buffer (20 mM Tris-HCL, pH 7.5, 150 mM NaCl, 5% BSA, 2 mM CaCl2, 1 mM MgCl2) containing various concentrations of AS101, was added to the wells. After 2 hours of incubation at 37° C., the wells were washed three times with washing buffer. Bound integrin was detected with mouse monoclonal anti-human αVβ3 integrin antibody (Millipore [Chemicon]) diluted 1:1000 in 100 μl binding buffer. Incubation continued for 1 hour at 37 C, and then the wells were washed again. […] Colour development was stopped by the addition of 1 N H2SO4, and plates were read in a spectrophotometer at 492 nm.

[2] = biological target: T2, VLA-4 (Homo sapiens, UniProt P13612); experiment: Western blot analysis of VLA-4 thiols; assay type: cell-based; settings: U937 cultured on fibronectin
T2 construct: free thiols are present on the integrin VLA-4 in leukemic cells; endogenous in cells; host or cells: U937 leukemic cells
Protocol: In order to confirm that free thiols are present on the integrin VLA-4 in leukemic cells, and that these are blocked by AS101, U937 leukemic cells cultured on fibronectin or BSA were treated with BMCC (1-biotinamido-4-(4′-[maleimidoethylcyclohexane]-carboxamido)butane), a thiol blocker linked to biotin. Some cultures were treated with AS101. The α and β chains of the VLA-4 (α4β1 integrin) were then immunoprecipitated from the treated cells using either anti-α4 or anti-β1 antibodies and blotted with anti-biotin antibody. The presence of free thiols was indicated by bands observed by anti-biotin blotting. The presence of α4 and β1 chains was determined by blotting with anti-α4 and anti-β1 antibodies.

[3] = test system: HL-60 cells; experiment: AML chemotherapy resistance assay (XTT cell viability), HL-60; assay type: cell-based, human
Protocol: (§1) Cell viability was determined using a cell proliferation kit (Roche), which colors viable cells using the tetrazolium salt XTT.
(§2) 2×10^4 per 200 μl cells were seeded in 96-microwell flat bottom plates. After 24 hours, the tested compound(s) (e.g., AS101, ARA-C, DTNB, anti-VLA-4 antibody) was added, and the cells were incubated overnight with the tested compound(s). The XTT solution was then added and the cells were incubated for 4 hours at 37° C. Cell viability was than evaluated by measuring absorbance at 450 nm using a Microplate Spectrophotometer (Spectra MAX Plus, Molecular Devices).

[4] = test system: Akt; experiment: Western blot analysis of Akt; assay type: cell-based, human
Protocol: Phosphorylation of Akt was determined by Western blot analysis.

[5] = test system: West Nile Virus (WNV); experiment: Western blot analysis of WNV protein synthesis (WNV-E protein); assay type: cell-based; settings: Vero cells
Protocol: Vero cells grown in 6-well plates (2×10^5 cells/well) were harvested and total cell extracts were prepared by suspension in 50 μl of ice-cold lysis buffer containing 50 mM Tris (pH 8.0), 150 mM NaCl, 1% NP-40, 0.1% SDS, 5 mM EDTA, 0.2 mM PMSF, 50 mM NaF, […] sodium vanadate, 5 mg/ml aprotinin and 5 mg/ml leupeptin. Cell lysates were boiled for 5 minutes and electrophoresed on 8% SDS-polyacrylamide gel, and were then transferred to a nitrocellulose membrane which was then incubated consecutively with a monoclonal antibody against the WNV envelope (WNV-E) protein and an anti-β-actin or anti-tubulin monoclonal antibody. The Nitrocellulose membranes were developed using horseradish peroxidase-conjugated secondary antibodies and the ECL detection system (Pierce, Rockford, Ill.). Quantitative evaluation of E protein calibrated against tubulin or β-actin was done by scanning and analysis using the Image-J program (www.//rsb.info.nih.gov/ij).

[6] = rats, intravenous and intramuscular administration; cited from earlier work
[7] = test system: αVβ3 integrin; experiment: Anti-αVβ3 integrin antibody binding assay; assay type: cell-based
Protocol: An anti-αVβ3 integrin mediated cell adhesion kit (Millipore [Chemicon], Temecula, Calif.) was used to determine cells attachment to anti-αVβ3 integrin antibody, in the presence or absence of AS101. Briefly, Vero or BGM cells were mixed with PBS or with AS101 (1-10 μg/ml) and were added to anti-αVβ3 integrin coated 96-well plates, and to a control 96-well plate (containing anti-mouse IgG) in triplicate. The plates were incubated at 37° C., 5% CO2, for 2 hours, and the cells were then stained and extracted according to the kit instructions, using the staining solution and extraction buffer supplied with the kit. Cell concentration was measured by a spectrophotometer at 540 nm.

[8] = test system: Bcl2; experiment: Western blot analysis of Bcl2; assay type: cell-based, human; settings: AS101 added to ARA-C
Source text: The expression of the survival factor Bcl2 was examined via Western blot analysis in U937 cells treated with the chemotherapeutic agent ARA-C.

[9] = test system: U937 cells; experiment: AML chemotherapy resistance assay (XTT cell viability), U937; assay type: cell-based, human
Protocol: as §1, §2
The role of VLA protein in fibronectin-induced resistance to chemotherapy was investigated by performing a chemotherapy resistance assay, as described hereinabove, with anti-VLA-4 and anti-VLA-5 antibodies. U937 cells were grown in fibronectin- and BSA-coated plates. Antibodies were added at a concentration of 1 μg/ml.

[10] = HL-60, fibronectin-coated plates, 0.5 or 1 μg/ml AS101

T2 sequence (P13612 34-1032): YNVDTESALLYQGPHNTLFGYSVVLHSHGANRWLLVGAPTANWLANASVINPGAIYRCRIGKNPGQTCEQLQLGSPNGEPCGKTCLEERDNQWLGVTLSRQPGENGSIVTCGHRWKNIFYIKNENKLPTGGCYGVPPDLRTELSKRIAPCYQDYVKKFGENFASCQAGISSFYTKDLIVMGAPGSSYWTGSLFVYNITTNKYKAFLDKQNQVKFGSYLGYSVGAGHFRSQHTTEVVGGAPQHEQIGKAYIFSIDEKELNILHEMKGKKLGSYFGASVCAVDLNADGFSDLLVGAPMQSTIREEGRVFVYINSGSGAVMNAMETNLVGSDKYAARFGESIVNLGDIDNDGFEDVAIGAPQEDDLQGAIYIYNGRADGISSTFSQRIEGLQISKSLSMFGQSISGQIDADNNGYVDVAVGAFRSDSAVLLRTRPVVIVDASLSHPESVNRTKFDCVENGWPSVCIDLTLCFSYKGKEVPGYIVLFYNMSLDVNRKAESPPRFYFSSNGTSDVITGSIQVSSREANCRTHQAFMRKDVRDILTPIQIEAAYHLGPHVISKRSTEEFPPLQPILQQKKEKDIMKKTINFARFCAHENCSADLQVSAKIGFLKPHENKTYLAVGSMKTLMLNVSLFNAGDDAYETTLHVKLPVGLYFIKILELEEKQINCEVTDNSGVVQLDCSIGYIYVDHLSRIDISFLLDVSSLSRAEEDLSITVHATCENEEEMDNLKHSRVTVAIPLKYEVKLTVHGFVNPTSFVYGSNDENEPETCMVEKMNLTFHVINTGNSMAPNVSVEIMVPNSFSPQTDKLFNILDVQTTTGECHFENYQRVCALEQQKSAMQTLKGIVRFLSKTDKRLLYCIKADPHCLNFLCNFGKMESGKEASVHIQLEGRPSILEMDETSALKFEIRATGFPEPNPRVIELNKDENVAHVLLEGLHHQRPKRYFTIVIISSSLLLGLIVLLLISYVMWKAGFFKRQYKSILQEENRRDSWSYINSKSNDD
T2 sequence (P05556 21-798 partner): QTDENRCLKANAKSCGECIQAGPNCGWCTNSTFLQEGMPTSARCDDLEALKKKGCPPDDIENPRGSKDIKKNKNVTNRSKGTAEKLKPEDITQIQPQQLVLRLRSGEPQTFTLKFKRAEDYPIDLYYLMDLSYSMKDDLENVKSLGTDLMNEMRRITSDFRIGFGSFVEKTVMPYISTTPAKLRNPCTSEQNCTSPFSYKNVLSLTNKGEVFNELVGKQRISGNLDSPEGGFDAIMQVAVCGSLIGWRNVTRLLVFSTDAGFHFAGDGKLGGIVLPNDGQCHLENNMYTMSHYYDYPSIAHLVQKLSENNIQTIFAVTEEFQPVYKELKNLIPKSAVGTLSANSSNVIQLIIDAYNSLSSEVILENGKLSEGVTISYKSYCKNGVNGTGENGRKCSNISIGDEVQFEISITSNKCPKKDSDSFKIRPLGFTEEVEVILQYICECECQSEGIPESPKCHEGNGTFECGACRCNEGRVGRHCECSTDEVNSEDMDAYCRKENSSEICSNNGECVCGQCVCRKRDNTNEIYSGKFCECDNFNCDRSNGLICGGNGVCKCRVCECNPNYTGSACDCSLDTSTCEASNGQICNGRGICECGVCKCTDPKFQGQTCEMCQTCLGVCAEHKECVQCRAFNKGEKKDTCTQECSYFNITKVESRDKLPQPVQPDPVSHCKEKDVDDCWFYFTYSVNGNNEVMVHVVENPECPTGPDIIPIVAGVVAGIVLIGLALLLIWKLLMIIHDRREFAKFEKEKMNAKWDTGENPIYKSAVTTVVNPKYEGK
T1 sequence (P06756 31-889 limits assumed): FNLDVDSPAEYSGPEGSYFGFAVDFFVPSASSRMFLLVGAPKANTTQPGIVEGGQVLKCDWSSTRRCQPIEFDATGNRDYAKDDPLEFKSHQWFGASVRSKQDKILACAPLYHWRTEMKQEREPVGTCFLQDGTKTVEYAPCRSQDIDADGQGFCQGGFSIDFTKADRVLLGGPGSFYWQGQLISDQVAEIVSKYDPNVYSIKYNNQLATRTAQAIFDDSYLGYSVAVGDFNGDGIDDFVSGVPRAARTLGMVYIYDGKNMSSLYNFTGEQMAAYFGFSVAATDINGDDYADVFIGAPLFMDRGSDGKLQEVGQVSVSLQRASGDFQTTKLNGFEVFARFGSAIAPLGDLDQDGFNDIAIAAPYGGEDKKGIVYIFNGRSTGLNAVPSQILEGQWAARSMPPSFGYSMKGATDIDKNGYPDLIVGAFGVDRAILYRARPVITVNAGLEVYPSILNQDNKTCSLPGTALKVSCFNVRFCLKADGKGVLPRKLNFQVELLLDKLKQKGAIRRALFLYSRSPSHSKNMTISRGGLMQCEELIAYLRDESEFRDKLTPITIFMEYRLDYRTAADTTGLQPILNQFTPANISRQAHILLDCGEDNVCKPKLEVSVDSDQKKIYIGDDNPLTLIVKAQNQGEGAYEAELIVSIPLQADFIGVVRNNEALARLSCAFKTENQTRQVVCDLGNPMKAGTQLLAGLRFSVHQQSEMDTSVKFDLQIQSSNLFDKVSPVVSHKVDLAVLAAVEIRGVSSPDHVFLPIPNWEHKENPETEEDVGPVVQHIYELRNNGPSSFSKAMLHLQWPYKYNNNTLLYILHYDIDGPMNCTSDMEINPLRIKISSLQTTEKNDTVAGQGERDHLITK
T1 sequence (P06756 891-1048 limits assumed): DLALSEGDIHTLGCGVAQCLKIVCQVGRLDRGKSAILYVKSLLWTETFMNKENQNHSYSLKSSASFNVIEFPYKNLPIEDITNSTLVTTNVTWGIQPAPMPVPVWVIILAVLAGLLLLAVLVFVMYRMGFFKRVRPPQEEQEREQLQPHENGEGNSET
T1 sequence (P05106 27-788): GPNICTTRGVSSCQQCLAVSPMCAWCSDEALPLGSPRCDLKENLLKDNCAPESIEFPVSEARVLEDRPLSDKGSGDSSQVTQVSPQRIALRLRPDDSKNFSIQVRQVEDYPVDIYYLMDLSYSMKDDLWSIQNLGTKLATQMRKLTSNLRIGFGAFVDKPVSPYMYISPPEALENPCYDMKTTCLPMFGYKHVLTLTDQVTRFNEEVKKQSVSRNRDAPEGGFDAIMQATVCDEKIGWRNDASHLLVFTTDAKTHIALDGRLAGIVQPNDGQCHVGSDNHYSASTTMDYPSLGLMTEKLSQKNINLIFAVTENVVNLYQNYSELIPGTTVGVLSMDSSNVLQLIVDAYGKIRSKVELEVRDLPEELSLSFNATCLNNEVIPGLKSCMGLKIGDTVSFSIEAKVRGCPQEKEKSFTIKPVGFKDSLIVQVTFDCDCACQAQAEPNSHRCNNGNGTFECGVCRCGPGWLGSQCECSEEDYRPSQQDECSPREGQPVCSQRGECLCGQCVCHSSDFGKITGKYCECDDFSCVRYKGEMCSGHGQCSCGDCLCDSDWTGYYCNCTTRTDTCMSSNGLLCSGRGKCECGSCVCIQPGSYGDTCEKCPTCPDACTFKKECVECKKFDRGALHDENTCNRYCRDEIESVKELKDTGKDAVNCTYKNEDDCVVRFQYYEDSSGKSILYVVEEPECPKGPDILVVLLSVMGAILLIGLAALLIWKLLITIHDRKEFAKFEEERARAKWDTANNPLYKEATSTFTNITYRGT

Compound: Cl[TeH]1(Cl)(Cl)OCCO1 [AS101, ammonium trichloro(dioxyethylene-O,O′)tellurate]
- attachment of αVβ3 integrin to immobilized WNV [1]: directly inhibited the attachment of αVβ3 integrin to WNV in a dose dependent manner
- free thiols on the α chain of VLA-4 (BMCC labelling) [2]: eliminated these free thiols
- sensitization to daunorubicin-induced cell death ([3]; HL-60, BSA-coated or VCAM-1-coated plates): no visible effect
- sensitization to ARA-C-induced cell death [3, 10]: sensitized HL-60 cells to ARA-C-induced cell death on fibronectin-coated plates
- sensitization to daunorubicin-induced cell death [3, 10]: sensitized HL-60 cells to daunorubicin-induced cell death on fibronectin-coated plates in a dose-dependent manner
- total amounts of Akt ([4]; U937): remained unchanged
- level of phosphorylated Akt (pAkt) ([4]; U937 on fibronectin, dose-dependent): reduced the level of phosphorylated Akt
- level of cell-bound WNV-E protein (virus attachment) ([5]; 5 μg/ml, 5 and 15 minutes after virus adsorption): marked reduced the level of WNV-E protein
- inhibition of virus protein (WNV-E) expression vs untreated cells ([5]; 2 and 5 μg/ml, 8 hours after infection): 2-3 fold
- LD50 relative to the immunologically effective dose [6]: 500-1000 folds
- inhibition of binding of anti-αVβ3 integrin antibody to cells ([7]; BGM cells, 10 μg/ml, data not shown): 64%
- binding of anti-αVβ3 integrin antibody to cells ([7]; Vero cells, 1-10 μg/ml): inhibited the binding of anti-αVβ3 integrin antibody to Vero cells in a dose-dependent manner
- expression of Bcl2 ([8]; U937 on BSA): no effect
- expression of Bcl2 ([8]; U937 on fibronectin): did not decrease expression of Bcl2 in cells plated on fibronectin (FN) unless AS101 was added
- effect on viability of cells exposed to ARA-C ([9]; U937, BSA-coated plates): neither AS101 nor anti-VLA-4 antibodies had an effect
- additional sensitization to ARA-C in cells sensitized by anti-VLA-4 antibodies ([9]; U937, fibronectin-coated plates): no additional effect
- sensitization to ARA-C-induced cell death ([9]; U937, fibronectin-coated plates, 0.5 or 1 μg/ml AS101): sensitized U937 cells to ARA-C-induced cell death on fibronectin-coated plates
- effect on viability of cells exposed to ARA-C, alone or in combination ([9]; U937 on BSA): no effect either alone or in combination
- sensitization to ARA-C, combination of AS101 and DTNB vs either alone ([9]; U937 on fibronectin): did not sensitize U937 cells grown on fibronectin to a greater degree than did either AS101 or DTNB alone
